Assay results published in patent US9926529B2, “Derivation of neural stem cells and dopaminergic neurons from human pluripotent stem cells” (International Stem Cell Corporation, priority 2012, dated 2018).
Like-named read-outs stand apart in the source and are kept apart here.

Tests used:
Assay type in all cases: cell-based, human
hPSC-NSCs [1] = experiment: Dopamine ELISA of conditioned medium (dopamine release)
Experimental: (§1) To obtain DA neurons, hPSC-NSC were first primed into DA precursors with 100 ng/mL FGF8 and 2 μM Purmorphamine for 7 days and then used to screen for small molecules that induce terminal dopaminergic differentiation (FIG. 6A). The DA precursors were plated at 2000 cells/well of a 96-well plate and treated with a small molecule library (Tocris 1120 biologically active compounds) at 2.5 μM for two weeks (FIG. 6A). Dopaminergic differentiation was assessed by neurite outgrowth and ELISA analysis for dopamine release (FIG. 6A). From this screen, guggulsterone (GS), a naturally occurring steroid, was identified among the best inducers of dopaminergic differentiation (FIG. 6A). After 30 days of differentiation, GS-treated neurons appeared mature with elaborate neurite extensions. […] Spontaneous action potentials were recorded in whole cultures of GS-treated neurons using a microelectrode array (MEA) system (FIG. 6J). […]
Conditioned medium from the top neurite inducers (Table 1) (wells containing the highest density of neurites compare to control 0.1% DMSO treated) were collected and analyzed using a dopamine ELISA assay (Cosmo Bio). […] Supernatant was then collected and analyzed for quantitative determination of dopamine using a commercial dopamine ELISA assay kit (CusaCosmo Bio). Data analysis was performed using the microtiter plate reader (BIO-TEK Synergy 2). […]

hPSC-NSCs [2] = experiment: RT-PCR expression of dopamine neuron genes in hPSC-NSCs treated with small molecule hits; conditions: Homo sapiens, Neuron, 336 h, hPSC-NSCs primed 7 days with Purmorphamine and FGF8, small molecule 2.5 μM for two weeks
In short: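 hPSC-NSCs pre-patterned 7 days with Purmorphamine (2 μM) plus FGF8 (100 ng/mL) in NB medium, then treated with compounds at 2.5 μM final for two weeks. Total RNA reverse-transcribed; SYBR Green qPCR for dopaminergic/neuronal markers, relative quantification against a standard curve, normalized to PPIG; mean±s.e.m.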

[3] = test system: hPSC-NSC derived DA neurons; experiment: FACS analysis of derived DA neurons stained for TH; conditions: after 30 days of differentiation with guggulsterone
Experimental: as §1
For flow cytometry analysis, 1 million cells per sample were harvested with Accutase, washed with PBS, and fixed with 4% paraformaldehyde for 30 min at room temperature. […] The samples were run on a Becton Dickinison FACSCalibur™ 4-color flow cytometer and the data was analyzed with CellQuest Pro™ software (v6.0). […]

SMILES: C/C=C1\C(=O)C[C@H]2[C@@H]3CCC4=CC(=O)CC[C@]4(C)[C@H]3CC[C@]12C [Guggulsterone]
- increase in dopamine secretion compared to control cells (ELISA) (hPSC-NSCs [1]; control: NSCs 1 week FGF8 and purmorphamine, 2 weeks 0.1% DMSO instead of GS): five-fold increase
- levels of Dopamine spontaneous release (hPSC-NSCs [1]; treated hPSC-NSCs, compared among top hits): highest levels
- fold induction at 2.5 µM (hPSC-NSCs [2]; read-out: DDC (AADC) expression by RT-PCR): 9.82
- fold induction at 2.5 µM (hPSC-NSCs [2]; read-out: EN1 expression by RT-PCR): 10
- fold induction at 2.5 µM (hPSC-NSCs [2]; read-out: KCNJ6 expression by RT-PCR): 0.01
- fold induction at 2.5 µM (hPSC-NSCs [2]; read-out: LMX1B expression by RT-PCR): 6.45
- fold induction at 2.5 µM (hPSC-NSCs [2]; read-out: MAP2 expression by RT-PCR): 9.05
- fold induction at 2.5 µM (hPSC-NSCs [2]; read-out: NR4A2 (NURR1) expression by RT-PCR): 0.53
- fold induction at 2.5 µM (hPSC-NSCs [2]; read-out: PITX3 expression by RT-PCR): 0.48
- fold induction at 2.5 µM (hPSC-NSCs [2]; read-out: Pax2 expression by RT-PCR): 0.03
- fold induction at 2.5 µM (hPSC-NSCs [2]; read-out: SLC6A3 (DAT) expression by RT-PCR): 1.03
- fold induction at 2.5 µM (hPSC-NSCs [2]; read-out: TH1 expression by RT-PCR): 10.6
- fold induction at 2.5 µM (hPSC-NSCs [2]; read-out: Tubb3 expression by RT-PCR): 6.83
- cells gated TH positive (FACS) [3]: more than 97%
